We go through two molecules from patent US9957214B2, “Multifunctional radical quenchers” (ARIZONA BOARD OF REGENTS ON BEHALF OF ARIZONA STATE …, priority 2012, dated 2018).

Data set [1] addresses bovine heart mitochondrial complex I (Bos taurus, UniProt P03887+P17694+P42026). Briefly: Complex I (NADH-Q1 oxidoreductase) inhibition in submitochondrial particles. Type of data set: biochemical. Conditions: submitochondrial particles, 30° C.
The next data set concerns FRDA lymphocytes. The data set is described as follows: Preservation of mitochondrial membrane potential (TMRM flow cytometry) in DEM-treated FRDA lymphocytes. Format: cell-based. As for the experimental part:
FIG. 3. Effect of nitrogen-containing 1,4-benzoquinone derivatives on mitochondrial membrane potential of cultured FRDA cells. Representative flow cytometric two dimensional color density dot plot analyses of mitochondrial membrane potential Δψm in FRDA lymphocytes stained with TMRM and analyzed using the FL2-H channel as described in Experimental Section. The cells were washed twice in phosphate buffered saline, and suspended in phosphate buffered saline containing 20 mM glucose. The percentage of cells with intact Δψm is indicated in the top right quadrant of captions. In each analysis, 10,000 events were recorded. Data are expressed as means±SEM of three independent experiments run in duplicate.
Mitochondrial membrane potential was measured using two different fluorescent dyes, TMRM and JC-1. Δψm was determined as previously described by staining FRDA lymphocyte cells with TMRM (Molecular Probes, Eugene, Oreg.) and analyzing fluorescence emission by flow cytometry in detection channel 2 (FL2-H) (Khdour et al. (2011) Pharmaceut. Res. 28, 2896-2909). Briefly, FRDA lymphocytes were pre-treated with or without the test compounds for 16 h. The cells were treated with 5 mM DEM for 140 min, collected by centrifugation at 300×g for 3 min and then washed twice with phosphate buffered saline. The cells were resuspended in PBS containing […] and incubated at 37° C. in the dark for 15 min with 250 nM TMRM. Cells were collected by centrifugation at 300×g for 3 min and were then washed with phosphate buffered saline. The samples were analyzed immediately by flow cytometry using a 488 nm excitation laser and the FL2-H channel. The results obtained were verified in three independent experiments. […] In each analysis, 10,000 events were recorded. […] The following day, cells were treated with tested compounds and incubated for an additional 12 h before treatment with 1 mM BSO. Δψm was assessed after 24 h using JC-1 Mitochondrial Membrane Potential Detection Kit (Biotium, Inc) following the manufacturer instruction. Glass cover slips were rinsed with phosphate-buffered saline and mounted onto slides, and images were recorded and analyzed with a Zeiss AxioCam MRm and AxioVision 3.1 software (Carl Zeiss Goettingen, Germany) on a Zeiss Axiovert 200 M inverted microscope, equipped with a 40× oil immersion objective.
The ability of the test compounds to preserve mitochondrial membrane potential under conditions of oxidative stress was studied. […] Changes in mitochondrial membrane potential (Δψm) were measured using two different fluorescent dyes, tetramethylrhodamine methyl ester (TMRM) and 5,5′,6,6′-tetrachloro-1,1′,3,3′-tetraethylbenzimidazolocarbocyanine iodide (JC-1). […] The fluorescence signal of TMRM can be directly co-related to Δψm across the inner mitochondrial membrane. […]
A general note: In flow cytometry, cells or beads pass a laser one at a time.

Data set [2] relates to Friedreich's ataxia lymphoblast cell line GM15850. Briefly: Cytoprotection (trypan blue exclusion assay) of DEM-treated FRDA lymphocytes. Type of data set: cell-based. Conditions: Homo sapiens, GM15850; 5 μM; DEM alone 18 ± 10% viability; read-out: Cytoprotection (cell viability, % of untreated control). In outline:
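GM15850 FRDA lymphoblasts at 5×10^5 cells/mL pre-incubated with test compounds for 17 h at 37 °C, then exposed to 5 mM DEM to deplete GSH. Viability by 0.4% trypan blue exclusion, ≥500 cells counted per group, expressed as % of non-DEM control; means±S.E.M., n=3.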

The subject of data set [3] is differentiated SH-SY5Y cells. Briefly: Neuroprotection against Aβ 1-42 oligomer induced cytotoxicity (WST-1). The note with it: Aβ 1-42 oligomers 2.5 μM, 48 h. Type of data set: cell-based, human. How it is done: FIG. 8. Effect of nitrogen-containing 1,4-benzoquinone 40 and geldanamycin on Aβ 1-42 induced neurotoxicity in differentiated SH-SY5Y cells.
The cytotoxic effect of Aβ 1-42 oligomers (2.5 μM) on differentiated SH-SY5Y cells was evaluated in presence and absence of the test compounds. Sequential treatment of the human SH-SY5Y neuroblastoma cell line with retinoic acid and brain-derived neurotrophic factor (BDNF) generates nearly pure populations of human neuron-like cells, thus providing a model for the study of neuronal differentiation and neuroprotection as previously described, with some modifications (Encinas et al. (2000) J. Neurochem. 75, 991-1003). […] The plates were incubated at 37° C. in an atmosphere having 95% humidity and 5% CO2 for 48 h and then cell viability was measured using a WST-1 Kit (Roche Diagnostics). […] Color intensity was measured with a 96-well plate at 450 nm using a SpectraMax M5 microplate reader (Molecular Devices, Sunnyvale, Calif.). Results are expressed as percentage of viable cells relative to untreated control after subtracting background. Data are expressed as means±S.E.M. (n=3).
Synthetic human Aβ 1-42 was purchased from AnaSpec (San Jose, Calif.). […] Aβ 1-42 peptide content was determined by the method of bicinchoninic acid assay (micro-BCA kit, Pierce) using BSA as reference.
On the technique in general: Tetrazolium assays rely on reduction of a dye to a coloured formazan, in cell work by metabolically active cells.

Chain of bovine heart mitochondrial complex I (P25708 21-464): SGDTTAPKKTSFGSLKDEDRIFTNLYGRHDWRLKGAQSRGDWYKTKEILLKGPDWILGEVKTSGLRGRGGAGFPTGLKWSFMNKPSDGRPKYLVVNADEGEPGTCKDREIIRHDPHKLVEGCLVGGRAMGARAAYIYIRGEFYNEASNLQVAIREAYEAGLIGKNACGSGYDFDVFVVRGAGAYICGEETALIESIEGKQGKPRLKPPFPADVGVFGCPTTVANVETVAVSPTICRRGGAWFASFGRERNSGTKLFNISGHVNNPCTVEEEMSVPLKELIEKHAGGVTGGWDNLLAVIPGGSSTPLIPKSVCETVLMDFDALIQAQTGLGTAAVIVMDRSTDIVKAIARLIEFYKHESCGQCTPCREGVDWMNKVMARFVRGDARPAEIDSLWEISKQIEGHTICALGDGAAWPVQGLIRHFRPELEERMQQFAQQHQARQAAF
Chain of bovine heart mitochondrial complex I (P42026 38-216): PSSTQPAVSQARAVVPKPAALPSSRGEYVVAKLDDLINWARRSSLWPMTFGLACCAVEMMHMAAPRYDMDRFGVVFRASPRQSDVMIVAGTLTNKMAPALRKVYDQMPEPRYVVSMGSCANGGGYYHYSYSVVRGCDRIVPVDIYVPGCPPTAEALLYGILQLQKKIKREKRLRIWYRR
Chain of bovine heart mitochondrial complex I (P17694 34-463): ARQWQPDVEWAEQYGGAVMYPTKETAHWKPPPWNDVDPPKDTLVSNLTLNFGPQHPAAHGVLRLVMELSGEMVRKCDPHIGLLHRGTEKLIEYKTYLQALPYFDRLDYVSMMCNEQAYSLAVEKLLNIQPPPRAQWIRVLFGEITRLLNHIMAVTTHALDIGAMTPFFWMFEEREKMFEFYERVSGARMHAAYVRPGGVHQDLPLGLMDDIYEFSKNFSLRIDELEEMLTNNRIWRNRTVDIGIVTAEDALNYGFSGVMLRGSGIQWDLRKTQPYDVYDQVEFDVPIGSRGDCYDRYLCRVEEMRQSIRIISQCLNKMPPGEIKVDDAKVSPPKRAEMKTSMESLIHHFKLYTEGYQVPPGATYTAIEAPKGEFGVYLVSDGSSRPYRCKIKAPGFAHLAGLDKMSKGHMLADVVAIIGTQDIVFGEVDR
Chain of bovine heart mitochondrial complex I (P15690 24-727, further chain): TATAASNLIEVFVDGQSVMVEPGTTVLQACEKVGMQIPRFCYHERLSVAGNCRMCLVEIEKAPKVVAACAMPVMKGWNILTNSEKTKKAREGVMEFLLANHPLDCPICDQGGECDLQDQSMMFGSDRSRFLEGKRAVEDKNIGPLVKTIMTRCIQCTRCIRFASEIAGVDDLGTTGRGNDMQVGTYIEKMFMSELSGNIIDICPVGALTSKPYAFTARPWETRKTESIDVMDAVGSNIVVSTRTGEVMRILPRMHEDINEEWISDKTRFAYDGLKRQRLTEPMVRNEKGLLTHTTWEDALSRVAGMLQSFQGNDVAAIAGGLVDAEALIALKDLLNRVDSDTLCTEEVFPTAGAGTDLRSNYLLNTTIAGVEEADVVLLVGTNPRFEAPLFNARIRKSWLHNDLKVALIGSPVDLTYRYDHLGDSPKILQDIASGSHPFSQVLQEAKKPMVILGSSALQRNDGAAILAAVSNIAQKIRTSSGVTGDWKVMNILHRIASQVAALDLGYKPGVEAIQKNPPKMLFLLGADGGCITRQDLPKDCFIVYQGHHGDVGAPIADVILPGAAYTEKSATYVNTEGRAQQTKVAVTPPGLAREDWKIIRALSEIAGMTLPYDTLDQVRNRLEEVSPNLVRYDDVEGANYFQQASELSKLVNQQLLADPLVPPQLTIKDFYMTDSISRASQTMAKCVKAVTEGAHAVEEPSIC
Chain of bovine heart mitochondrial complex I (P03887 whole entry): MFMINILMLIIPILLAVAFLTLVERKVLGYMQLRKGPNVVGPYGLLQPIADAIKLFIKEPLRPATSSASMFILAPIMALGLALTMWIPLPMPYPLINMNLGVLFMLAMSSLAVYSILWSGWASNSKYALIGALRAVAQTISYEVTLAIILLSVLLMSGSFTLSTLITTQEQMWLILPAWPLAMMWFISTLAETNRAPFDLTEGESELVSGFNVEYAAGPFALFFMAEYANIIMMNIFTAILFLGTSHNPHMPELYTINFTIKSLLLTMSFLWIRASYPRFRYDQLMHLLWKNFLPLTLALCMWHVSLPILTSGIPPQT
Chain of bovine heart mitochondrial complex I (P42028 37-212, further chain): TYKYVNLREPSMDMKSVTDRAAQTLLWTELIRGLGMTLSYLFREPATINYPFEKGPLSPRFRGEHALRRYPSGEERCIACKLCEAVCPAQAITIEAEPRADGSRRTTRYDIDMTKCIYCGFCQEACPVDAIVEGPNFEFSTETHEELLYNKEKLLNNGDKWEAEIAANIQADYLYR

One may read the IC50 as the point on the concentration scale where inhibition reaches its midpoint. What is called viability is the share of living cells, or the viability signal relative to a control. Take `CCCCCCCCCCCCCC1=C(OC)C(=O)C=C(NCCCC(=O)OCCCC)C1=O` [Compound 15, Butyl 4-(4-methoxy-3,6-dioxo-5-tridecylcyclohexa-1,4-dienylamino)butanoate]: the IC50 in data set [1] (read-out: Complex I inhibition IC50) was determined as 98 ± 8 µM. Further, the Emax in data set [1] (read-out: Complex I inhibition Imax) is ≥ 60%. Moreover, the “Preservation of mitochondrial membrane potential Δψm (in words)” value in the data set on FRDA lymphocytes is on record as “prevented the loss of Δψm”. Further, the viability at 5 µM in data set [2] came out at 82 ± 2.9%.

Regarding `COC1=C2C[C@@H](C)C[C@H](OC)[C@H](O)[C@@H](C)/C=C(\C)[C@H](OC(N)=O)[C@@H](OC)/C=C\C=C(/C)C(=O)NC(=CC1=O)C2=O` [geldanamycin, reference compound], in data set [3], the “Effect on Aβ 1-42 induced cytotoxicity (in words)” value was “increased cytotoxicity”.
